From BigSolDB 2.1

CC1(C)[C@@H](O)CC[C@]2(C)[C@H]3C(=O)C=C4[C@@H]5C[C@@](C)(C(=O)O)CC[C@]5(C)CC[C@@]4(C)[C@]3(C)CC[C@@H]12
Settings | solubility (mole fraction)
in 1,4-dioxane, 288.15 K | 0.0269
in 1,4-dioxane, 293.15 K | 0.028
in 1,4-dioxane, 298.15 K | 0.0297
in 1,4-dioxane, 303.15 K | 0.0315
in 1,4-dioxane, 308.15 K | 0.0327
in 1,4-dioxane, 313.15 K | 0.0337
in 1,4-dioxane, 318.15 K | 0.0349
in 1,4-dioxane, 323.15 K | 0.036
in DMF, 278.15 K | 0.0467
in DMF, 283.15 K | 0.0474
in DMF, 288.15 K | 0.0515
in DMF, 293.15 K | 0.0552
in DMF, 298.15 K | 0.0576
in DMF, 303.15 K | 0.0598
in DMF, 308.15 K | 0.0643
in DMF, 313.15 K | 0.0678
in DMF, 318.15 K | 0.0716
in DMF, 323.15 K | 0.0763
in THF, 278.15 K | 0.0764
in THF, 283.15 K | 0.077
in THF, 288.15 K | 0.0774
in THF, 293.15 K | 0.078
in THF, 298.15 K | 0.0787
in THF, 303.15 K | 0.0794
in THF, 308.15 K | 0.0804
in THF, 313.15 K | 0.0815
in THF, 318.15 K | 0.0827
in THF, 323.15 K | 0.0842
in acetone, 278.15 K | 0.00321
in acetone, 283.15 K | 0.00347
in acetone, 288.65 K | 0.00365
in acetone, 293.15 K | 0.0038
in acetone, 298.15 K | 0.00414
in acetone, 303.15 K | 0.00438
in acetone, 308.15 K | 0.00468
in acetone, 313.15 K | 0.00495
in acetone, 318.15 K | 0.00543
in acetone, 323.15 K | 0.00598
in ethanol, 278.15 K | 0.0106
in ethanol, 283.15 K | 0.0112
in ethanol, 288.65 K | 0.0125
in ethanol, 293.15 K | 0.0132
in ethanol, 298.15 K | 0.0138
in ethanol, 303.15 K | 0.0143
in ethanol, 308.15 K | 0.0148
in ethanol, 313.15 K | 0.0152
in ethanol, 318.15 K | 0.0158
in ethanol, 323.15 K | 0.0168
in isobutyl acetate, 278.15 K | 0.00229
in isobutyl acetate, 283.15 K | 0.00232
in isobutyl acetate, 288.15 K | 0.00239
in isobutyl acetate, 293.15 K | 0.00242
in isobutyl acetate, 298.15 K | 0.00247
in isobutyl acetate, 303.15 K | 0.00256
in isobutyl acetate, 308.15 K | 0.00273
in isobutyl acetate, 313.15 K | 0.00278
in isobutyl acetate, 318.15 K | 0.00288
in isobutyl acetate, 323.15 K | 0.00314
in isopropanol, 278.15 K | 0.00857
in isopropanol, 283.15 K | 0.00946
in isopropanol, 288.65 K | 0.0114
in isopropanol, 293.15 K | 0.012
in isopropanol, 298.15 K | 0.0129
in isopropanol, 303.15 K | 0.0139
in isopropanol, 308.15 K | 0.0149
in isopropanol, 313.15 K | 0.0156
in isopropanol, 318.15 K | 0.0164
in isopropanol, 323.15 K | 0.0174
in methanol, 278.15 K | 0.00229
in methanol, 283.15 K | 0.00257
in methanol, 288.65 K | 0.00295
in methanol, 293.15 K | 0.00329
in methanol, 298.15 K | 0.00373
in methanol, 303.15 K | 0.00427
in methanol, 308.15 K | 0.00486
in methanol, 313.15 K | 0.00562
in methanol, 318.15 K | 0.00675
in methanol, 323.15 K | 0.00755
in methyl acetate, 278.15 K | 0.00182
in methyl acetate, 283.15 K | 0.00196
in methyl acetate, 288.15 K | 0.00203
in methyl acetate, 293.15 K | 0.00227
in methyl acetate, 298.15 K | 0.00244
in methyl acetate, 303.15 K | 0.00259
in methyl acetate, 308.15 K | 0.0027
in methyl acetate, 313.15 K | 0.00293
in methyl acetate, 318.15 K | 0.00319
in methyl acetate, 323.15 K | 0.0034
in n-butyl acetate, 278.15 K | 0.00286
in n-butyl acetate, 283.15 K | 0.00297
in n-butyl acetate, 288.15 K | 0.00315
in n-butyl acetate, 293.15 K | 0.00327
in n-butyl acetate, 298.15 K | 0.00333
in n-butyl acetate, 303.15 K | 0.00344
in n-butyl acetate, 308.15 K | 0.0035
in n-butyl acetate, 313.15 K | 0.00354
in n-butyl acetate, 318.15 K | 0.00359
in n-butyl acetate, 323.15 K | 0.00364
in n-propanol, 278.15 K | 0.0131
in n-propanol, 283.15 K | 0.0146
in n-propanol, 288.65 K | 0.016
in n-propanol, 293.15 K | 0.0174
in n-propanol, 298.15 K | 0.0186
in n-propanol, 303.15 K | 0.0194
in n-propanol, 308.15 K | 0.0206
in n-propanol, 313.15 K | 0.0218
in n-propanol, 318.15 K | 0.0223
in n-propanol, 323.15 K | 0.023
in n-propyl acetate, 278.15 K | 0.00157
in n-propyl acetate, 283.15 K | 0.00176
in n-propyl acetate, 288.15 K | 0.00193
in n-propyl acetate, 293.15 K | 0.00211
in n-propyl acetate, 298.15 K | 0.00232
in n-propyl acetate, 303.15 K | 0.00245
in n-propyl acetate, 308.15 K | 0.00261
in n-propyl acetate, 313.15 K | 0.00273
in n-propyl acetate, 318.15 K | 0.00284
in n-propyl acetate, 323.15 K | 0.00295
